The results in this text go back to patent publication US20260232658A1, “AZETIDINYL BENZOXAZOLE COMPOUNDS AND THEIR USE AS MER AND AXL INHIBITORS” (DONG-A ST CO., LTD., priority 2022, published 2026).

One test has as its target T1, TYRO3 (455-end) (Homo sapiens, UniProt Q06418).
T1 construct: TYRO3 (455-end); purchased SignalChem, Canada
T1 sequence (Q06418 455-890 limits assumed): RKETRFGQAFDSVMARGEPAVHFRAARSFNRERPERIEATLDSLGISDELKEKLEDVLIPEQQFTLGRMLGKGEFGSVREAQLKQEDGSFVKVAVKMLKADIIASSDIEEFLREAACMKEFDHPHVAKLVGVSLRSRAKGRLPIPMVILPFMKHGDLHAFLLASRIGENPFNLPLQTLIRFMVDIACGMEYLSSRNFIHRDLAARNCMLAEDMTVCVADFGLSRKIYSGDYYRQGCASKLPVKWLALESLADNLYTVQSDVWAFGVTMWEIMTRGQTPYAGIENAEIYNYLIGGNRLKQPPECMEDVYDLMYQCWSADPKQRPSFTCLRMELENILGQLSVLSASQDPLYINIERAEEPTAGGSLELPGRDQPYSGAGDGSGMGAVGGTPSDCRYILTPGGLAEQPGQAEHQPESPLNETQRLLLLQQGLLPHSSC
As to the kind of experiment: HTRF kinase activity biochemical assay, TYRO3.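 Note: biotinylated tyrosine kinase substrate phosphorylation detected via streptavidin-XL665 and Eu3+-cryptate anti-phospho antibody time-resolved fluorescence, read after 1 h detection at room temperature, 384-well format.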 Particulars: recombinant kinase, 10 uM ATP, 30 minutes pre-incubation; read-out: HTRF TYRO IC50.

A further test deals with T2, human AXL (473-end) (Homo sapiens, UniProt P30530).
T2 construct: human AXL (473-end); purchased SignalChem, Canada
T2 sequence (P30530 473-894 limits assumed): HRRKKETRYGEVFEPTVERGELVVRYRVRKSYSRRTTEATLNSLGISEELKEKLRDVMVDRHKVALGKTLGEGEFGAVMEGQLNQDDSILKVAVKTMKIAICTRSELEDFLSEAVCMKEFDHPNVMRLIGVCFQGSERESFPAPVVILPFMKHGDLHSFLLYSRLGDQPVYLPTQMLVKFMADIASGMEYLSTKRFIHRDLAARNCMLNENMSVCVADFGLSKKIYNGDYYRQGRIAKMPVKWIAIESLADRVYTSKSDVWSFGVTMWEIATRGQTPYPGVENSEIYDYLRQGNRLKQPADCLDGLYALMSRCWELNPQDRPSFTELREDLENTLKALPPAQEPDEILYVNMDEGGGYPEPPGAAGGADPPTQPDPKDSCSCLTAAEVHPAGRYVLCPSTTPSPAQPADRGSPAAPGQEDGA
As to the kind of experiment: HTRF kinase activity biochemical assay, AXL.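 Note: phosphorylation of a biotinylated tyrosine kinase substrate detected via Eu3+-cryptate anti-TK antibody and streptavidin-XL665, fluorescence read after a 1 h incubation at room temperature.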 Particulars: recombinant kinase, 10 uM ATP, 30 minutes pre-incubation; read-out: HTRF AXL IC50. For orientation: TR-FRET usually uses a lanthanide donor and a delayed reading to cut background.

In another test the target is T3, human MER (528-end) (Homo sapiens, UniProt Q12866).
T3 construct: human MER (528-end); purchased Carnabio, Japan
T3 sequence (Q12866 528-999 limits assumed): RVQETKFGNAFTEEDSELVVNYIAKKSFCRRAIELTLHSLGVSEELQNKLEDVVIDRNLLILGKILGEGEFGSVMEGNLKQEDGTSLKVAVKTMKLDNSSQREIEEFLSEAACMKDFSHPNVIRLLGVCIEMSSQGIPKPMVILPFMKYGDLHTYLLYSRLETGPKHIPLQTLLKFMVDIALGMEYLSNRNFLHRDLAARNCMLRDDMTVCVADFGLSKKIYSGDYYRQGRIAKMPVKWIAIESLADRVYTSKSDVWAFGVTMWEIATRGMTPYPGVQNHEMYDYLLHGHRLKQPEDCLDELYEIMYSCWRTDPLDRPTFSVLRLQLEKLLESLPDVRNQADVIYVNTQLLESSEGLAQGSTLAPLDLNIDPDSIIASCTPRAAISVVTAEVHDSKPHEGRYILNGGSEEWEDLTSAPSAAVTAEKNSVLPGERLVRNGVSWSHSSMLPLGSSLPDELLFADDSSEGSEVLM
The experiment in a line: HTRF kinase activity biochemical assay, MER.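 Note: phosphorylation of a biotin-tagged tyrosine kinase substrate detected by Eu3+-cryptate antibody and streptavidin-XL665 time-resolved fluorescence, read after 1 h at room temperature.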 As to conditions: recombinant kinase, 10 uM ATP, 30 minutes pre-incubation; read-out: HTRF MERTK IC50.

Turning to `Cn1cc(Nc2ncc(C3CN(c4nc5ccc(OCc6cnn(CCO)c6)cc5o4)C3)nc2C(N)=O)cn1` [Example 104, 6-[1-(6-{[1-(2-hydroxyethyl)-1H-pyrazol-4-yl]methoxy}-1,3-benzoxazol-2-yl)azetidin-3-yl]-3-[(1-methyl-1H-pyrazol-4-yl)amino]pyrazine-2-carboxamide], the IC50 – broadly, the concentration at which inhibition is half-maximal – on TYRO3 (455-end) was found to be 3500 nM; on human AXL (473-end), 59 nM; at human MER (528-end) it was 8 nM.

Regarding `CN(C)C(=O)CCc1ccc2nc(N3CC(c4cnc(Nc5cnn(C)c5)c(C(N)=O)n4)C3)oc2c1` [Example 62, 6-(1-{6-[3-(dimethylamino)-3-oxopropyl]-1,3-benzoxazol-2-yl}azetidin-3-yl)-3-[(1-methyl-1H-pyrazol-4-yl)amino]pyrazine-2-carboxamide], the IC50 amounted to 1750 nM at TYRO3 (455-end), 6 nM on human AXL (473-end) and 3 nM on human MER (528-end).

As for `Cn1cc(Nc2ncc(C3CN(c4nc5ccc(CC(=O)N6CCC[C@H]6CO)cc5o4)C3)nc2C(N)=O)cn1` [Example 66, 6-[1-(6-{2-[(2S)-2-(hydroxymethyl)pyrrolidin-1-yl]-2-oxoethyl}-1,3-benzoxazol-2-yl)azetidin-3-yl]-3-[(1-methyl-1H-pyrazol-4-yl)amino]pyrazine-2-carboxamide], the values for the IC50 on TYRO3 (455-end), on human AXL (473-end) and at human MER (528-end) were 2900 nM, 3 nM and 2 nM, respectively.

Regarding `Cn1cc(Nc2ncc(C3CN(c4nc5ccc(OCC(C)(C)OC(=O)CN)cc5o4)C3)nc2C(N)=O)cn1` [Example 113, 1-{[2-(3-{6-carbamoyl-5-[(1-methyl-1H-pyrazol-4-yl)amino]pyrazin-2-yl}azetidin-1-yl)-1,3-benzoxazol-6-yl]oxy}-2-methylpropan-2-yl glycinate], the IC50 at TYRO3 (455-end) was 160 nM; on human AXL (473-end), 1 nM; at human MER (528-end), under 1 nM.

Turning to `Cn1cc(Nc2ncc(C3CN(c4nc5ccc(OCC#N)cc5o4)C3)nc2C(N)=O)cn1` [Example 24, 6-{1-[6-(cyanomethoxy)-1,3-benzoxazol-2-yl]azetidin-3-yl}-3-[(1-methyl-1H-pyrazol-4-yl)amino]pyrazine-2-carboxamide], the IC50 at TYRO3 (455-end) worked out at 130 nM; on human AXL (473-end), 3 nM; at human MER (528-end) it was 2 nM.

As to `Cn1cc(Nc2ncc(C3CN(c4nc5ccc(-c6ccc(O)cc6)cc5o4)C3)nc2C(N)=O)cn1` [Example 88, 6-{1-[6-(4-hydroxyphenyl)-1,3-benzoxazol-2-yl]azetidin-3-yl}-3-[(1-methyl-1H-pyrazol-4-yl)amino]pyrazine-2-carboxamide], the IC50 was 51 nM at TYRO3 (455-end), 3 nM at human AXL (473-end) and under 1 nM on human MER (528-end).

Turning to `Cn1cc(Nc2ncc(C3CN(c4nc5ccc(C(C)(C)CO)cc5o4)C3)nc2C(N)=O)cn1` [Example 111, 6-{1-[6-(1-hydroxy-2-methylpropan-2-yl)-1,3-benzoxazol-2-yl]azetidin-3-yl}-3-[(1-methyl-1H-pyrazol-4-yl)amino]pyrazine-2-carboxamide], the figures for the IC50 on TYRO3 (455-end), on human AXL (473-end) and at human MER (528-end) were 640 nM, 6 nM and 5 nM, respectively.

Turning to `Cn1cc(Nc2ncc(C3CN(c4nc5ccc(C(=O)N6CCC[C@@H]6C(C)(C)O)cc5o4)C3)nc2C(N)=O)cn1` [Example 75, 6-(1-{6-[(2R)-2-(2-hydroxypropan-2-yl)pyrrolidine-1-carbonyl]-1,3-benzoxazol-2-yl}azetidin-3-yl)-3-[(1-methyl-1H-pyrazol-4-yl)amino]pyrazine-2-carboxamide], the IC50 is 65 nM on TYRO3 (455-end), 3 nM on human AXL (473-end) and under 1 nM at human MER (528-end).

For `Cn1cnc(COc2ccc3nc(N4CC(c5cnc(Nc6cnn(C)c6)c(C(N)=O)n5)C4)oc3c2)c1` [Example 98, 6-(1-{6-[(1-methyl-1H-imidazol-4-yl)methoxy]-1,3-benzoxazol-2-yl}azetidin-3-yl)-3-[(1-methyl-1H-pyrazol-4-yl)amino]pyrazine-2-carboxamide], the IC50 worked out at 1280 nM on TYRO3 (455-end), 7 nM on human AXL (473-end) and 1.1 nM on human MER (528-end).
